The source made the active and inactive calls. No rule for the calls is given here.
System: rodent carcinogenicity bioassays, tumor incidence
Assay: CCRIS carcinogenicity studies
Procedure, shortened: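 NCI-built, expert-reviewed records of carcinogenicity and related test outcomes (mutagenicity, tumor promotion/inhibition) compiled from published and report sources, historical span 1985-2011, not updated.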

Compound: Cc1cnc2ccc3c(nc(N)n3C)c2n1
- carcinogen call (Species: MONKEY, Strain/Sex: CYNOMOLGUS/FEMALE, Route: GAVAGE, Dose: 0, 10, 20 MG/KG BW FOR 84 MONTHS (STUDY DURATION: 92 MONTHS), Dose: 0, 10, 20 MG/KG BW FOR 84 MONTHS (STUDY DURATION: 92 MONTHS)): inactive; negative
- carcinogen call (Species: MONKEY, Strain/Sex: CYNOMOLGUS/MALE, Route: GAVAGE, Dose: 0, 10, 20 MG/KG BW FOR 84 MONTHS (STUDY DURATION: 92 MONTHS), Dose: 0, 10, 20 MG/KG BW FOR 84 MONTHS (STUDY DURATION: 92 MONTHS)): inactive; negative
- carcinogen call (Species: MOUSE, Strain/Sex: B6C3F1/MALE, Route: INTRAPERITONEAL, Dose: 0, 0.625 UMOL IN 35 µL DMSO ON D 1, 8, AND 15 AFTER BIRTH (STUDY DURATION: 8 MO)): inactive; negative
- carcinogen call (Species: MOUSE, Strain/Sex: B6C3F1/MALE, Route: INTRAPERITONEAL, Dose: 0, 0.625 UMOL IN 35 µL DMSO ON D 1, 8, AND 15 AFTER BIRTH (STUDY DURATION: 12 MO), Tumor Site: Type of Lesion: LIVER: HEPATOCELLULAR ADENOMA): active; positive
- carcinogen call (Species: MOUSE, Strain/Sex: B6C3F1/MALE, Route: INTRAPERITONEAL, Dose: 0, 1.25 UMOL IN 35 µL DMSO ON D 1, 8, AND 15 AFTER BIRTH (STUDY DURATION: 8 MO)): inactive; negative
- carcinogen call (Species: MOUSE, Strain/Sex: B6C3F1/MALE, Route: INTRAPERITONEAL, Dose: 0, 1.25 UMOL IN 35 µL DMSO ON D 1, 8, AND 15 AFTER BIRTH (STUDY DURATION: 12 MO), Tumor Site: Type of Lesion: LIVER: HEPATOCELLULAR ADENOMA, HEPATOCELLULAR CARCINOMA): active; positive
- carcinogen call (Species: MOUSE, Strain/Sex: C57BL/6J/MALE (20/GROUP), Route: DIET, Dose: 0, 30, 300 PPM FOR 78 WK (STUDY DURATION: 78 WK), Dose: 0, 30, 300 PPM FOR 78 WK (STUDY DURATION: 78 WK)): inactive; negative
- carcinogen call (Species: MOUSE, Strain/Sex: CDF1/FEMALE, Route: ORAL, Dose: 0, 0.06% IN DIET FOR 84 WK (STUDY DURATION: 84 WK), Tumor Site: Type of Lesion: LIVER: TUMOR, LUNG: ADENOMA OR ADENOCARCINOMA): active; positive
- carcinogen call (Species: MOUSE, Strain/Sex: CDF1/MALE, Route: ORAL, Dose: 0, 0.06% IN DIET FOR 84 WK (STUDY DURATION: 84 WK), Tumor Site: Type of Lesion: LIVER: TUMOR, LYMPHATIC SYSTEM: LYMPHOMA OR LEUKEMIA): active; positive
- carcinogen call (Species: RAT, Strain/Sex: F344/FEMALE, Route: ORAL, Dose: 0, 0.04% IN DIET FOR DURATION OF STUDY (STUDY DURATION: 429 D), Tumor Site: Type of Lesion: LIVER: TUMOR, ZYMBAL GLAND: TUMOR, CLITORAL GLAND: TUMOR, Tumor Site: Type of Lesion: LIVER: TUMOR, ZYMBAL GLAND: TUMOR, CLITORAL GLAND: TUMOR): active; positive
- carcinogen call (Species: RAT, Strain/Sex: F344/MALE, Route: ORAL, Dose: 0, 0.04% IN DIET FOR DURATION OF STUDY (STUDY DURATION: 429 D), Tumor Site: Type of Lesion: LIVER: TUMOR, ZYMBAL GLAND: TUMOR, SKIN: TUMOR, Tumor Site: Type of Lesion: LIVER: TUMOR, ZYMBAL GLAND: TUMOR, SKIN: TUMOR): active; positive
- carcinogen call (Species: RAT, Strain/Sex: F344/MALE, Route: ORAL, Dose: 0, 100, 200, 400 PPM IN DIET FOR 56 WK (STUDY DURATION: 56 WK), Dose: 0, 100, 200, 400 PPM IN DIET FOR 56 WK (STUDY DURATION: 56 WK), Tumor Site: Type of Lesion: LIVER: HEPATOCELLULAR ADENOMA, HEPATOCELLULAR CARCINOMA, ZYMBAL GLAND: SQUAMOUS CELL CARCINOMA, SKIN: TUMOR, Tumor Site: Type of Lesion: LIVER: HEPATOCELLULAR ADENOMA, HEPATOCELLULAR CARCINOMA, ZYMBAL GLAND: SQUAMOUS CELL CARCINOMA, SKIN: TUMOR): active; positive
- carcinogen call (Species: RAT, Strain/Sex: LEA/MALE, Route: ORAL, Dose: 0, 40 PPM IN DIET FOR 40 WK (STUDY DURATION: 40 WK)): inactive; negative
- carcinogen call (Species: RAT, Strain/Sex: LEC/MALE, Route: ORAL, Dose: 0, 40 PPM IN DIET FOR 40 WK (STUDY DURATION: 40 WK), Tumor Site: Type of Lesion: LIVER: TUMOR): active; positive
- carcinogen call (Species: RAT, Strain/Sex: SPRAGUE-DAWLEY/FEMALE, Route: GAVAGE, Dose: 75 MG/KG/D FOR 10 D, THEN PLACED ON A HIGH-FAT DIET (STUDY DURATION: 46 WK), Tumor Site: Type of Lesion: MAMMARY GLAND: CARCINOMA, ADENOMA): active; positive

Compound: O=S(O)S(=O)(=O)O
- carcinogen call (Species: RAT, Strain/Sex: WISTAR/FEMALE, Route: ORAL, Dose: 0, 0.125, 0.25, 0.5, 1, 2% IN DIET FOR 104 WK (STUDY DURATION: 104 WK), Dose: 0, 0.125, 0.25, 0.5, 1, 2% IN DIET FOR 104 WK (STUDY DURATION: 104 WK)): inactive; negative
- carcinogen call (Species: RAT, Strain/Sex: WISTAR/FEMALE, Route: ORAL, Dose: 0, 0.125, 0.25, 0.5, 1, 2% IN DIET FOR 104 WK TO OFFSPRING OF RATS ADMINISTERED THE SAME DOSES IN THEIR DIETS (STUDY DUR, Dose: 0, 0.125, 0.25, 0.5, 1, 2% IN DIET FOR 104 WK TO OFFSPRING OF RATS ADMINISTERED THE SAME DOSES IN THEIR DIETS (STUDY DUR): inactive; negative
- carcinogen call (Species: RAT, Strain/Sex: WISTAR/MALE, Route: ORAL, Dose: 0, 0.125, 0.25, 0.5, 1, 2% IN DIET FOR 104 WK (STUDY DURATION: 104 WK), Dose: 0, 0.125, 0.25, 0.5, 1, 2% IN DIET FOR 104 WK (STUDY DURATION: 104 WK)): inactive; negative
- carcinogen call (Species: RAT, Strain/Sex: WISTAR/MALE, Route: ORAL, Dose: 0, 0.125, 0.25, 0.5, 1, 2% IN DIET FOR 104 WK TO OFFSPRING OF RATS ADMINISTERED THE SAME DOSES IN THEIR DIETS (STUDY DUR, Dose: 0, 0.125, 0.25, 0.5, 1, 2% IN DIET FOR 104 WK TO OFFSPRING OF RATS ADMINISTERED THE SAME DOSES IN THEIR DIETS (STUDY DUR): inactive; negative

Compound: Cc1c(C(=O)O)c(O)cc2c1C(=O)c1c(O)c([C@@H]3O[C@@H](CO)[C@H](O)[C@@H](O)[C@H]3O)c(O)c(O)c1C2=O
- carcinogen call (Species: RAT, Strain/Sex: WISTAR/FEMALE, Route: ORAL, Dose: 0, 50, 150, 500 MG/KG/D IN BASAL DIET TO PUPS OF PARENTS GIVEN THE SAME DIETARY DOSE LEVELS FOR 60 D PRIOR TO MATING AND, Dose: 0, 50, 150, 500 MG/KG/D IN BASAL DIET TO PUPS OF PARENTS GIVEN THE SAME DIETARY DOSE LEVELS FOR 60 D PRIOR TO MATING AND): inactive; negative
- carcinogen call (Species: RAT, Strain/Sex: WISTAR/MALE, Route: ORAL, Dose: 0, 50, 150, 500 MG/KG/D IN BASAL DIET TO PUPS OF PARENTS GIVEN THE SAME DIETARY DOSE LEVELS FOR 60 D PRIOR TO MATING AND, Dose: 0, 50, 150, 500 MG/KG/D IN BASAL DIET TO PUPS OF PARENTS GIVEN THE SAME DIETARY DOSE LEVELS FOR 60 D PRIOR TO MATING AND): inactive; negative
